Data set [1] addresses T1, chimeric protein PPARα-Gal4 (Homo sapiens, UniProt Q07869).
T1 construct: Gal4 (fusion partner); expressed in transfected cells; host or cells: CV-1 cells (monkey kidney cells)
T1 sequence (Q07869 239-466 limits assumed): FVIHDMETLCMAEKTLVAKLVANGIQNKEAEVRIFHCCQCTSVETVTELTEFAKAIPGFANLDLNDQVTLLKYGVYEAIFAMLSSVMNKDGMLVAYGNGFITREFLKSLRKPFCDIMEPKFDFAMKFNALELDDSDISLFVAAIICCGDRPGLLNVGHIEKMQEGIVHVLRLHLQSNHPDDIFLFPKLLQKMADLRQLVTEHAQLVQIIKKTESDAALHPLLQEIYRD
In words: PPAR activation, Gal4 chimera luciferase reporter gene in co-transfected CV-1 cells. Type of data set: cell-based. Particulars: 50 μM, 18 hours contact, CV-1 cells (monkey kidney cells). As to the method: (§1) The measurement of the PPAR activation was performed according to a technique described by Lehmann et al. (J. Biol. Chem., 270, (1995), 12953-12956).
(§2) CV-1 cells (monkey kidney cells) are co-transfected with an expression vector for the chimeric proteins PPARα-Gal4 or PPARγ-Gal4 and with a “reporter” plasmid that allows the expression of the luciferase gene placed under the control of a promoter comprising Gal4 response elements.
(§3) The cells are plated into 96-well microplates and co-transfected using a commercial reagent with the reporter plasmid (pG5-tk-pGL3) and the expression vector for the chimeric protein (PPARα-Gal4 or PPARγ-Gal4). After incubating for 4 hours, whole culture medium (comprising 10% foetal calf serum) is added to the wells. After 24 hours, the medium is removed and replaced with whole medium comprising the test products (50 μM final). The products are left in contact with the cells for 18 hours. The cells are then lysed and the luciferase activity is measured using a luminometer. A PPAR activation factor can then be calculated by means of activation of the expression of the reporter gene induced by the product (relative to the control cells that have not received any product).
Background: Reporter assays use an easily measured gene product as a stand-in for the process of interest.

Data set [2] has as its target T2, chimeric protein PPARγ-Gal4 (Homo sapiens, UniProt P37231).
T2 construct: Gal4 (fusion partner); expressed in transfected cells; host or cells: CV-1 cells (monkey kidney cells)
T2 sequence (P37231 238-503 limits assumed): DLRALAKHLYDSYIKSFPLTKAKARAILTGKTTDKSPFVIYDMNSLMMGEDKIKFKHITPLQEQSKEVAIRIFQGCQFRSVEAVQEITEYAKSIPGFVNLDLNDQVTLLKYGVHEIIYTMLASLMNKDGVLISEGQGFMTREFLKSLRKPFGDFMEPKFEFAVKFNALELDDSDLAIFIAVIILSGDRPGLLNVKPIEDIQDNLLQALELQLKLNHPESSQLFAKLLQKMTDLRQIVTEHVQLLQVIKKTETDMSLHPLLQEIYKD
The description is as above. The data set is classed as cell-based. Particulars: 50 μM, 18 hours contact, CV-1 cells (monkey kidney cells). As to the method: as §1, §2, §3

The test system of a further data set is Gal4 alone. In words: Control reporter test without the PPAR ligand binding domain (vector expressing Gal4 alone). The data set is classed as cell-based. Particulars: CV-1 cells. As to the method:
CV-1 cells (monkey kidney cells) are co-transfected with an expression vector for the chimeric proteins PPARα-Gal4 or PPARγ-Gal4 and with a “reporter” plasmid that allows the expression of the luciferase gene placed under the control of a promoter comprising Gal4 response elements. The cells are plated into 96-well microplates and co-transfected using a commercial reagent with the reporter plasmid (pG5-tk-pGL3) and the expression vector for the chimeric protein (PPARα-Gal4 or PPARγ-Gal4). After incubating for 4 hours, whole culture medium (comprising 10% foetal calf serum) is added to the wells. After 24 hours, the medium is removed and replaced with whole medium comprising the test products (50 μM final). The products are left in contact with the cells for 18 hours. The cells are then lysed and the luciferase activity is measured using a luminometer. A PPAR activation factor can then be calculated by means of activation of the expression of the reporter gene induced by the product (relative to the control cells that have not received any product). […] In the absence of the binding domain for the PPAR α or γ ligand (vector expressing Gal4 alone), the luciferase activity measured in the presence of this product is zero.

The subject of a further data set is db/db mice. Kind of data set: Antidiabetic and hypolipidaemiant activity, oral, in db/db mice. Type of data set: in vivo. Conditions: 20 mg/kg/day orally for 15 days. Here is the method:
The antidiabetic and hypolipidaemiant activity of the compounds according to the invention was determined orally on db/db mice.
15-week-old db/db mice are treated orally for 15 days with the compound of Example 18 (20 mg/kg/day). Each group studied comprises seven animals. After treatment for 15 days, retro-orbital samples are taken under mild anaesthesia and after fasting for four hours.
The following parameters were measured:
Assay of the glycaemia (glucose oxidase) and of the lipid parameters on the sera at D15 (COBAS): triglycerides, total cholesterol (CHOL), HDL cholesterol (HDL-C) and free fatty acids (FFA) (BioMérieux and Waco Chemicals assay kit).
The measurements reported represent mean values±standard error.

Setting [3] is: serum at D15, fasting four hours, mean ± standard error.

Marks after values point to notes of the source that are not given here.

As a reminder, the melting point is the temperature, or range, at which the solid turns liquid. Consider `O=C(c1ccc(Cl)cc1)c1ccc(O[C@@H](CCc2ccccc2)C(=O)O)cc1` [Example 6], for which the melting point worked out at 148 °C. For `O=C(O)[C@H](CCc1ccccc1)Oc1ccc(-c2cccnc2)cc1` [Example 7], the melting point turned out to be 140 °C.

The molecule `O=C(O)[C@H](CCc1ccccc1)Oc1ccc(-c2ccsc2)cc1` [Example 8] showed a melting point of 176 to 177 °C. For the molecule `O=C(O)[C@H](CCc1ccccc1)Oc1ccc(-c2cccs2)cc1` [Example 9], the melting point lay within 151 to 153 °C. As to `O=C(O)[C@H](CCc1ccccc1)Oc1ccc(-c2ccc(Cl)s2)cc1` [Example 18, (2S)-2-[4-(5-chlorothien-2-yl)phenoxy]-4-phenylbutanoic acid], the “PPAR activation factor (reporter gene expression relative to control cells)” value in data set [1] came to 16. The “PPAR activation factor (reporter gene expression relative to control cells)” value in data set [2] came out at 41. Besides, the “luciferase activity in the absence of the binding domain for the PPAR α or γ ligand” value with Gal4 alone is reported as “zero”. For the same molecule, in the data set on db/db mice (D15), the “CHOL, % var. (percentage of variation versus control)” value is “+25 ** %”; the “FFA, % var. (percentage of variation versus control)” value is recorded as −40 ** %; the “Glycaemia, % var. (percentage of variation versus control)” value is −53 ** %; the “HDL-C, % var. (percentage of variation versus control)” value is “+10 * %”. The “Triglycerides, % var. (percentage of variation versus control)” value in the data set with db/db mice (D15) is −41 ** %. Also, in the data set on db/db mice (setting [3]), the “CHOL (total cholesterol)” value is recorded as 4.57 ± 0.51 mM, the “FFA (free fatty acids)” value was 0.42 ± 0.06 mM, the Glycaemia is 12.65 ± 7.0 Mm and the HDL-C amounted to 3.53 ± 0.24 mM. The molecule further showed a Triglycerides with db/db mice (setting [3]) of 0.77 ± 0.16 mM.

As for `Cc1nc(-c2ccc(O[C@@H](CCc3ccccc3)C(=O)O)cc2)cs1` [Example 26], the melting point fell in the range of 150 to 152 °C. Still for that read-out and setting: the result for `O=C(O)C(CCc1cccc(Cl)c1)Oc1ccc(-c2cc3ccccc3s2)cc1` (stereo not shown) [Example 141] reads 109 to 110 °C; that for `COc1ccc(CCC(Oc2ccc(-c3cc4ccccc4s3)cc2)C(=O)O)cc1` (stereo not shown) [Example 142], 198 to 199 °C; that for `O=C(O)[C@H](CCc1ccccc1)Oc1cccc(OCc2ccc3ccccc3n2)c1` [Example 143], 124 °C. Still for that read-out and setting: next, `O=C(O)[C@H](CCc1ccccc1)Oc1ccc(-c2cc3ccccc3o2)cc1` [Example 144]: 198 °C; `O=C(O)C(CCc1ccc(F)cc1)Oc1ccc(-c2cc3ccccc3s2)cc1` (stereo not shown) [Example 146]: 188 to 190 °C; `O=C(O)C(CCc1ccccc1)Oc1ccc2oc3ccccc3c2c1` (stereo not shown) [Example 152]: 136 °C. Consider `Cc1cc(OC(CCc2ccccc2)C(=O)O)cc(=O)o1` (stereo not shown) [Example 207], for which the melting point turned out to be 165 °C. `O=C(O)C(CCc1ccco1)Oc1ccc(Br)cc1` (stereo not shown) [Example 227] registered a melting point of 102 to 104 °C. Still for that read-out and setting: next, `O=C(O)C(CCc1ccco1)Oc1ccc(C(F)(F)F)cc1` (stereo not shown) [Example 228]: 99 to 99.5 °C; `O=C(O)C(CCc1cccs1)Oc1ccc(C(F)(F)F)cc1` (stereo not shown) [Example 229]: 116 to 118 °C.
